Laboratory results taken from patent US20070071762A1, “COMPREHENSIVE DIAGNOSTIC TESTING PROCEDURES FOR PERSONALIZED ANTICANCER CHEMOTHERAPY (PAC)” (CCC Diagnostics, LLC, priority 2005, published 2007).
≈ marks a conversion by molar mass, not a printed value. Read-outs that look alike come from different tables or passages of the source. Blank lines part the entries; values can stand above or below the compound they belong to.

Tests used:
SKBR-3 cells [1] = test: WST-8 growth inhibition of cultured breast cancer cells; type: cell-based, human; settings: for IC50: Homo sapiens, SK-BR-3, 5-FU, doses ranged from 5-300 μg/ml
Method: (§1) In another example, the expression of thymidylate synthase (TS) was correlated with the response of breast cancer cells to the chemotherapeutic drug 5-fluorouracil (5-FU). TS is a key enzyme in DNA biosynthesis and has been postulated to play a major role in predicting the response to 5-FU based chemotherapy. Experiments were conducted to examine this relationship. […] Doses ranged from 5-300 μg/ml.

MCF-7 cells [2] = test: as above; type: cell-based, human; settings: for IC50: Homo sapiens, MCF7, 5-FU, doses ranged from 5-300 μg/ml
Method: as §1

MDA-MB231 cells = settings: MDA-MB 231 cells
Method: For experimental conditions, cell suspensions containing 10^4 viable cells were plated into 96 well plates in 100 μl of media, and allowed to attach for 24 hours at 37° C. in a 5% CO2 atmosphere. After this incubation period, the cells were exposed to the drug at the designated doses, which were based on peak plasma concentration (PPC), as determined by published pharmacokinetic analyses. […] Media containing 0.5% FCS was then added to each well in order to maximize ER expression. Control wells contained 100 μl of the appropriate media and were treated identically to the test wells. At 72 hours post treatment, the plates were subjected to WST-8 analysis. WST-8 is a tetrazolium salt that is bioreduced by cellular dehydrogenases to yield a colored formazan product. The amount of the formazan product is directly proportional to the number of living cells. […] The absorbance of each well was measured at 460 nm using a Biotek microplate reader. For each concentration of drugs the mean absorbance±the SE was calculated. Results are expressed as % inhibition of growth compared with drug concentration. IC50 values will be determined using the median effect plot of (log fa/log fu) vs log C where fu=fraction unaffected, fa=fraction affected and C=drug concentration.

HCC 202 cells = test: WST-8 growth inhibition of cultured breast cancer cells; type: cell-based, human; settings: for IC50: Homo sapiens
Method: as §1

HCC 2218 cells = test: as above; type: cell-based, human; settings: for IC50: Homo sapiens
Method: as §1

T47D cells = test: as above; type: cell-based, human; settings: for IC50: Homo sapiens
Method: as §1

HCC 38 cells = test: as above; type: cell-based, human; settings: for IC50: Homo sapiens
Method: as §1

SKBR-3 cells [3] = test: as above; type: cell-based; settings: Homo sapiens, SK-BR-3, 72 hours post treatment
MCF-7 cells [4] = test: as above; type: cell-based; settings: Homo sapiens, 72 hours post treatment

Structure (SMILES): CC/C(=C(\c1ccccc1)c1ccc(OCCN(C)C)cc1)c1ccccc1 [Tamoxifen, tamoxifen]
biological response to drug treatment (in words) (SKBR-3 cells [1]): much less sensitive response
biological response to drug treatment (in words) (MCF-7 cells [2]): high sensitivity
biological response to drug treatment (in words) (MDA-MB231 cells): much less sensitive response

IC50 (HCC 202 cells; HCC202, 5-FU, HCC 202 cells, doses ranged from 5-300 μg/ml, read-out: IC50-1 FU): 181 µg/mL (≈ 1390 µM)
IC50 (HCC 202 cells; HCC202, 5-FU, HCC 202 cells, doses ranged from 5-300 μg/ml, read-out: IC50-2 FU): 162 µg/mL (≈ 1250 µM)
IC50 (SKBR-3 cells [1]; read-out: IC50-1 FU): 23.3 µg/mL (≈ 179 µM)
IC50 (SKBR-3 cells [1]; read-out: IC50-2 FU): 33.7 µg/mL (≈ 259 µM)
IC50 (HCC 2218 cells; HCC2218, 5-FU, HCC 2218 cells, doses ranged from 5-300 μg/ml, read-out: IC50-1 FU): 246 µg/mL (≈ 1890 µM)
IC50 (MCF-7 cells [2]; read-out: IC50-1 FU): 10 µg/mL (≈ 76.9 µM)
IC50 (MCF-7 cells [2]; read-out: IC50-2 FU): 15.2 µg/mL (≈ 117 µM)
IC50 (T47D cells; 5-FU, doses ranged from 5-300 μg/ml, read-out: IC50-1 FU): 8.64 µg/mL (≈ 66.4 µM)
IC50 (T47D cells; 5-FU, doses ranged from 5-300 μg/ml, read-out: IC50-2 FU): 6.72 µg/mL (≈ 51.7 µM)
IC50 (HCC 38 cells; HCC38, 5-FU, HCC 38 cells, doses ranged from 5-300 μg/ml, read-out: IC50-1 FU): 216 µg/mL (≈ 1660 µM)
Structure (SMILES): O=c1[nH]cc(F)c(=O)[nH]1 [5 Fluorouracil, 5-fluorouracil]
biological response to drug treatment (in words) (HCC 202 cells; HCC 202 cells): responded only to higher doses
biological response to drug treatment (in words) (SKBR-3 cells [1]): responding to lower doses
biological response to drug treatment (in words) (HCC 2218 cells; HCC 2218 cells): responded only to higher doses
biological response to drug treatment (in words) (MCF-7 cells [2]): responding to lower doses
biological response to drug treatment (in words) (T47D cells): responding to lower doses
biological response to drug treatment (in words) (HCC 38 cells; HCC 38 cells): responded only to higher doses

IC50 (SKBR-3 cells [3]; Paclitaxel, SKBR-3 cells, read-out: IC50-1): 10 µg/mL (≈ 11.7 µM)
IC50 (SKBR-3 cells [3]; Paclitaxel, SKBR-3 cells, read-out: IC50-2): 8.5 µg/mL (≈ 9.95 µM)
IC50 (HCC 202 cells; HCC202, Paclitaxel, HCC 202 cells, 72 hours post treatment, read-out: IC50-1): > 50 µg/mL
IC50 (HCC 202 cells; HCC202, Paclitaxel, HCC 202 cells, 72 hours post treatment, read-out: IC50-2): > 50 µg/mL
IC50 (HCC 2218 cells; Paclitaxel, HCC2218 cells, 72 hours post treatment, read-out: IC50-1): > 50 µg/mL
IC50 (HCC 2218 cells; Paclitaxel, HCC2218 cells, 72 hours post treatment, read-out: IC50-2): > 50 µg/mL
IC50 (T47D cells; Paclitaxel, 72 hours post treatment, read-out: IC50-1): 3 µg/mL (≈ 3.51 µM)
IC50 (T47D cells; Paclitaxel, 72 hours post treatment, read-out: IC50-2): 3.6 µg/mL (≈ 4.22 µM)
IC50 (HCC 38 cells; HCC38, Paclitaxel, HCC 38 cells, 72 hours post treatment, read-out: IC50-1): > 50 µg/mL
IC50 (HCC 38 cells; HCC38, Paclitaxel, HCC 38 cells, 72 hours post treatment, read-out: IC50-2): > 50 µg/mL
IC50 (MCF-7 cells [4]; MCF7, Paclitaxel, read-out: IC50-1): 6 µg/mL (≈ 7.03 µM)
IC50 (MCF-7 cells [4]; MCF7, Paclitaxel, read-out: IC50-2): 7.1 µg/mL (≈ 8.31 µM)
Structure (SMILES): CC(=O)O[C@H]1C(=O)[C@@]2(C)[C@H]([C@H](OC(=O)c3ccccc3)[C@]3(O)C[C@H](OC(=O)[C@H](O)[C@@H](NC(=O)c4ccccc4)c4ccccc4)C(C)=C1C3(C)C)[C@]1(OC(C)=O)CO[C@@H]1C[C@@H]2O [Paclitaxel, paclitaxel]
biological response to drug treatment (in words) (HCC 202 cells; HCC 202 cells): resistant
biological response to drug treatment (in words) (SKBR-3 cells [1]): sensitive
biological response to drug treatment (in words) (HCC 2218 cells; HCC 2218 cells): displayed a response to PTX, but did not express an IC50 value
biological response to drug treatment (in words) (MCF-7 cells [2]): sensitive
biological response to drug treatment (in words) (T47D cells): sensitive
biological response to drug treatment (in words) (HCC 38 cells; HCC 38 cells): displayed a response to PTX, but did not express an IC50 value

IC50 (SKBR-3 cells [3]; Docetaxel, SKBR3 cells, read-out: IC50-1): 6.6 µg/mL (≈ 8.17 µM)
IC50 (SKBR-3 cells [3]; Docetaxel, SKBR3 cells, read-out: IC50-2): 12.5 µg/mL (≈ 15.5 µM)
IC50 (HCC 202 cells; Docetaxel, HCC202 cells, 72 hours post treatment, read-out: IC50-1): 25.5 µg/mL (≈ 31.6 µM)
IC50 (HCC 202 cells; Docetaxel, HCC202 cells, 72 hours post treatment, read-out: IC50-2): 22 µg/mL (≈ 27.2 µM)
IC50 (HCC 2218 cells; HCC2218, Docetaxel, HCC 2218 cells, 72 hours post treatment, read-out: IC50-1): 25 µg/mL (≈ 30.9 µM)
IC50 (HCC 2218 cells; HCC2218, Docetaxel, HCC 2218 cells, 72 hours post treatment, read-out: IC50-2): 18 µg/mL (≈ 22.3 µM)
IC50 (T47D cells; Docetaxel, 72 hours post treatment, read-out: IC50-1): 5.5 µg/mL (≈ 6.81 µM)
IC50 (T47D cells; Docetaxel, 72 hours post treatment, read-out: IC50-2): 4.5 µg/mL (≈ 5.57 µM)
IC50 (HCC 38 cells; Docetaxel, HCC38 cells, 72 hours post treatment, read-out: IC50-1): 58 µg/mL (≈ 71.8 µM)
IC50 (HCC 38 cells; Docetaxel, HCC38 cells, 72 hours post treatment, read-out: IC50-2): 59.9 µg/mL (≈ 74.1 µM)
IC50 (MCF-7 cells [4]; MCF7, Docetaxel, read-out: IC50-1): 1 µg/mL (≈ 1.24 µM)
IC50 (MCF-7 cells [4]; MCF7, Docetaxel, read-out: IC50-2): 0.8 µg/mL (≈ 0.99 µM)
Structure (SMILES): CC(=O)O[C@@]12CO[C@@H]1C[C@H](O)[C@@]1(C)C(=O)[C@H](O)C3=C(C)[C@@H](OC(=O)[C@H](O)[C@@H](NC(=O)OC(C)(C)C)c4ccccc4)C[C@@](O)([C@@H](OC(=O)c4ccccc4)[C@H]21)C3(C)C [Docetaxel, docetaxel]
biological response to drug treatment (in words) (HCC 202 cells; HCC 202 cells): resistant
biological response to drug treatment (in words) (SKBR-3 cells [1]): sensitive
biological response to drug treatment (in words) (HCC 2218 cells; HCC 2218 cells): response only to higher doses
biological response to drug treatment (in words) (MCF-7 cells [2]): sensitive
biological response to drug treatment (in words) (T47D cells): sensitive
biological response to drug treatment (in words) (HCC 38 cells; HCC 38 cells): response only to higher doses
